The text below walks through data of patent US8697911B2, “Rho kinase inhibitors” (Boehringer Ingelheim International GmbH, priority 2010, dated 2014).

Read-outs that look alike come from different tables or passages of the source.

Test [1] deals with spontaneously hypertensive rat, renal hypertensive rat and deoxycortisone acetate salt hypertensive rat models. To be noted: cited from earlier work.
In test [2] the test system is neointimal formation in rats. To be noted: cited from earlier work.
For another test, the system named is Dahl salt-sensitive rats. To be noted: rat, in vivo; cited from earlier work.
For test [3], the target named is T1, ROCKII (1-543) (Homo sapiens (Human), UniProt O75116). Briefly: Luciferin-Luciferase Assay (Assay 1). Format: biochemical. Particulars: luciferin-luciferase residual ATP; 750 nM ATP, 7.5 nM kinase.
Target sequence in this assay (O75116 1-543): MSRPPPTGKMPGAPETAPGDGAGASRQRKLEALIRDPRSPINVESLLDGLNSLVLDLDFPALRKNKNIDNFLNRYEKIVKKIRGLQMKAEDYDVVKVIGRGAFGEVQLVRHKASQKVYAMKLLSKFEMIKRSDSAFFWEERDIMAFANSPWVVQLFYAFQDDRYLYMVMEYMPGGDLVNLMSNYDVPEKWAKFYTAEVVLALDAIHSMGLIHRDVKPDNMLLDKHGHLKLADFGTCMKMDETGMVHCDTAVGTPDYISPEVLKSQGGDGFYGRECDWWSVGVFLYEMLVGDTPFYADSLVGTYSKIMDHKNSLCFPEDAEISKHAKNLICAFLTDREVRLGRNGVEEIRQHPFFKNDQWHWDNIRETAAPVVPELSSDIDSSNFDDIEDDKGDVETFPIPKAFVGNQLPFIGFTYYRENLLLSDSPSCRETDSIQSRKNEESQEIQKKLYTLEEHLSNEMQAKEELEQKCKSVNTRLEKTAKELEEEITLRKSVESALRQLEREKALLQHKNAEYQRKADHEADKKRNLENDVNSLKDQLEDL
Test [4] deals with T1, ROCKII (1-543). The experiment in a line: IMAP Assay (Assay 2). Format: biochemical. To be noted: IMAP fluorescence polarization; 100 μM ATP, 1 nM kinase. The method, boiled down: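 Final conditions: 1 nM ROCKII (1-543), 200 nM FAM S6 peptide and 100 μM ATP in Tris-HCl pH 7.2 buffer with 10 mM MgCl2 and 1 mM DTT, 1% DMSO, top compound concentration 3 μg/mL, 60 min at RT. Readout was IMAP fluorescence polarization, and IC50 came from a 4-parameter fit of percent of control.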
Target sequence in this assay (O75116 1-543, species assumed): as the sequence (O75116 1-543) above
A general note: Polarisation of emitted light reports the rotation of a fluorescent probe.

Test [5] relates to IL-1 beta-induced coronary stenosis. To be noted: long term treatment; cited from earlier work.
The next test deals with rat stroke model. To be noted: in vivo; cited from earlier work.

`C[C@@H](N)[C@H]1CC[C@H](C(=O)Nc2ccncc2)CC1` [Y-27632]: the “effect on blood pressure” value in test [1] (control rats) was “only a minor effect on blood pressure”; in test [1] (three rat models of hypertension) it was “significantly decrease blood pressure”. Also, the neointimal formation entry in test [2] is reported as “inhibited neointimal formation”. Besides, the “ventricular hypertrophy and function” value with Dahl salt-sensitive rats is “improve ventricular hypertrophy and function”.

As to `CN1CCc2ccc(NC(=O)c3cccc(CNC(=O)c4ccc(-c5ccncc5)cc4)c3)cc2C1` [compound 129], the results for the IC50 against ROCKII (1-543) [3] and against ROCKII (1-543) [4] were 1.3 nM and 0.195 nM, respectively.

As for `Cc1cc(-c2ccc(C(=O)NCc3cccc(C(=O)Nc4nc5c(s4)CN(C)CC5)c3)cc2)ccn1` [compound 144, 3-[4-(2-picoline-4-yl)-benzamidomethyl-N-(5-methyl-4,5,6,7-tetrahydro-thiazolo[5,4-c]pyridin-2-yl)-benzamide]], the IC50 on ROCKII (1-543) [3] is 2.6 nM; against ROCKII (1-543) [4] it was 4.35 nM.

As to `Cc1c(C(=O)NCc2cccc(C(=O)Nc3nc4c(s3)C[C@@H](N3CCOCC3)CC4)c2)nnn1-c1nonc1N` [compound 152], the IC50 was found to be 1.9 nM on ROCKII (1-543) [3] and 0.57 nM against ROCKII (1-543) [4].

Turning to `Cc1cc(-c2ncc(C(=O)NCc3cccc(C(=O)Nc4nc5c(s4)CN(C)CC5)c3)s2)ccn1` [compound 154], the IC50 at ROCKII (1-543) [3] stood at 9.5 nM; at ROCKII (1-543) [4], 39 nM.

Take `CN1CCc2ccc(NC(=O)c3cccc(CNC(=O)c4ccc(-c5cc[nH]n5)cc4)c3)cc2C1` [compound 155]: the IC50 on ROCKII (1-543) [3] stood at 8.1 nM; on ROCKII (1-543) [4] it was 47 nM.

`CN1CCc2ccc(NC(=O)c3cccc(CNC(=O)c4ccc(-n5cncn5)cc4)c3)cc2C1` [compound 178, 4-[1,2,4]triazol-1-yl-benzoic acid 3-(2-methyl-1,2,3,4-tetrahydro-isoquinolin-7-ylcarbamoyl)-benzylamide]: the IC50 against ROCKII (1-543) [3] came to 5.7 nM; at ROCKII (1-543) [4], 48 nM.

Regarding `CN1CCc2ccc(NC(=O)c3cccc(CNC(=O)c4ccc(-c5ccn[nH]5)cc4)c3)cc2C1` [compound 179], the IC50 is 6.6 nM against ROCKII (1-543) [3] and 34 nM against ROCKII (1-543) [4].

`CN1CCc2ccc(NC(=O)c3cccc(CNC(=O)c4cccc(-c5cnco5)c4)c3)cc2C1` [compound 190]: the IC50 at ROCKII (1-543) [3] was found to be 6.5 nM; against ROCKII (1-543) [4], 56 nM.

Consider `CN1CCc2ccc(NC(=O)c3cccc(CNC(=O)c4cnc(-c5cccnc5)s4)c3)cc2C1` [compound 194], for which the IC50 came out at 4.8 nM at ROCKII (1-543) [3] and 30 nM against ROCKII (1-543) [4].

In the case of `Cc1nccn1-c1ccc(C(=O)NCc2cccc(C(=O)Nc3ccc4c(c3)CN(C)CC4)c2)cc1` [compound 200], the IC50 came out at 3 nM against ROCKII (1-543) [3] and 1.6 nM at ROCKII (1-543) [4].

With `O=S(=O)(c1cccc2cnccc12)N1CCCNCC1` [fasudil], in test [5], the coronary constrictive remodeling entry was “promote a regression of coronary constrictive remodeling” and the coronary stenosis entry is reported as “progressively reduce coronary stenosis”. For the same compound, in the test with rat stroke model, the “infarct size and neurologic deficit” value is “reduce both the infarct size and neurologic deficit”.

A word on the IC50: it is the midpoint of a concentration-inhibition curve. Lower therefore signals higher potency.
